Measurements published in ChEMBL document CHEMBL1145296, “Development of 6-substituted indolylquinolinones as potent Chek1 kinase inhibitors” (Bioorg Med Chem Lett, 2006).

Tests used:
[1] = molecular target: T1, Serine/threonine-protein kinase Chk1 (Homo sapiens, UniProt O14757); experiment: Inhibition of human CHEK1
T1 sequence (O14757 whole entry): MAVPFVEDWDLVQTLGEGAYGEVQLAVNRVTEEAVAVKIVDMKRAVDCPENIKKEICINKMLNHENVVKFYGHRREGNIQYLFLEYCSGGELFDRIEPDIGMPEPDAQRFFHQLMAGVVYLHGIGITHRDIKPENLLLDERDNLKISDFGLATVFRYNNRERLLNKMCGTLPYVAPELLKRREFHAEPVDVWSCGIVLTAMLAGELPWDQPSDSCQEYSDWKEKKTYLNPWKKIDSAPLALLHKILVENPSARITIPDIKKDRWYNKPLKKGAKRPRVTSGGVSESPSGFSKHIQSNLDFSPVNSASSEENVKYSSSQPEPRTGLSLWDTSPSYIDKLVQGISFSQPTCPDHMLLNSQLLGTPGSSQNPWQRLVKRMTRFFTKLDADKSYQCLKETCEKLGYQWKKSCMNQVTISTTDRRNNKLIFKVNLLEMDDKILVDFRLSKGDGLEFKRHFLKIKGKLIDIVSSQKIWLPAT

[2] = Clearance in dog at 0.25 mg/kg, iv; format: ADME, organism-based, Canis lupus familiaris; parameters: dose 0.25 mg/kg, route intravenous; conditions: in vivo
[3] = Half life in dog at 0.25 mg/kg, iv; format: ADME, organism-based, Canis lupus familiaris; parameters: dose 0.25 mg/kg, route intravenous; conditions: in vivo
[4] = Partition coefficient, log P of the compound; format: physicochemical; conditions: octanol/water

Row | SMILES | IC50 [1] | clearance [2] | half-life [3] | logP [4]
1 | O=c1[nH]c2ccc(-n3ccnc3)cc2cc1-c1cc2cc(CN3CCCCC3)ccc2[nH]1 | 4.3 nM | – | – | –
2 | O=c1[nH]c2ccc(-c3cccc(O)c3)cc2cc1-c1cc2cc(CN3CCCCC3)ccc2[nH]1 | 29 nM | – | – | –
3 | COc1cc(-c2ccc3[nH]c(=O)c(-c4cc5cc(CN6CCCCC6)ccc5[nH]4)cc3c2)ccc1O | 20 nM | – | – | –
4 | N#Cc1ccc2cc(-c3cc4cc(CN5CCC(CN)CC5)ccc4[nH]3)c(=O)[nH]c2c1 | 190 nM | – | – | –
5 | O=c1[nH]c2ccc(-c3cc[nH]n3)cc2cc1-c1cc2cc(CN3CCCCC3)ccc2[nH]1 | 5.6 nM | – | – | –
6 | Cn1nnc(-c2ccc3[nH]c(=O)c(-c4cc5cc(CN6CCCCC6)ccc5[nH]4)cc3c2)n1 | 6.4 nM | – | – | –
7 | O=c1[nH]c2ccccc2cc1-c1cc2ccccc2[nH]1 | 1000 nM | – | – | –
8 | N#Cc1cccc2[nH]c(=O)c(-c3cc4cc(CN5CCC(CN)CC5)ccc4[nH]3)cc12 | 580 nM | – | – | –
9 | N#Cc1ccc2[nH]c(=O)c(-c3cc4cc(CN5CCC(CN)CC5)ccc4[nH]3)cc2c1 | 4 nM | – | – | –
10 | O=c1[nH]c2ccc(-n3nccn3)cc2cc1-c1cc2cc(CN3CCCCC3)ccc2[nH]1 | 14 nM | – | – | –
11 | O=c1[nH]c2ccc(-c3cn[nH]c3)cc2cc1-c1cc2cc(CN3CCCCC3)ccc2[nH]1 | – | 1.8 L/h/kg | 4.4 h | 2.81
12 | N#Cc1ccc2[nH]c(=O)c(-c3cc4cc(CN5CCCCC5)ccc4[nH]3)cc2c1 | 4.6 nM | – | – | –

The remaining lines, values ahead:

Row | IC50 [1] | clearance [2] | half-life [3] | logP [4] | SMILES
13 | 0.7 nM | – | – | – | NCC1CCN(Cc2ccc3[nH]c(-c4cc5cc(C(N)=O)ccc5[nH]c4=O)cc3c2)CC1
14 | 0.83 nM | 2.04 L/h/kg | 2 h | – | O=c1[nH]c2ccc(-c3cn[nH]c3)cc2cc1-c1cc2cc(CN3CCOCC3)ccc2[nH]1
15 | 2.5 nM | 1.62 L/h/kg | 1.5 h | – | CC(=O)N1CCN(Cc2ccc3[nH]c(-c4cc5cc(-c6cn[nH]c6)ccc5[nH]c4=O)cc3c2)CC1
16 | 1 nM | 1.32 L/h/kg | 2.5 h | – | O=c1[nH]c2ccc(-c3cn[nH]c3)cc2cc1-c1cc2cc(CN3CCC(F)CC3)ccc2[nH]1
17 | 3 nM | 0.39 L/h/kg | 4.1 h | – | CC(=O)N1CCN(Cc2ccc3[nH]c(-c4cc5cc(-c6cnn(C)c6)ccc5[nH]c4=O)cc3c2)CC1
18 | 0.74 nM | – | – | – | O=c1[nH]c2ccc(-n3ccnn3)cc2cc1-c1cc2cc(CN3CCCCC3)ccc2[nH]1
19 | 0.34 nM | – | – | – | NC(=O)c1ccc2[nH]c(=O)c(-c3cc4cc(CN5CCCCC5)ccc4[nH]3)cc2c1
20 | 0.64 nM | – | – | – | O=c1[nH]c2ccc(-c3cnsc3)cc2cc1-c1cc2cc(CN3CCCCC3)ccc2[nH]1
21 | 2.9 nM | – | – | – | O=c1[nH]c2ccc(Br)cc2cc1-c1cc2cc(CN3CCCCC3)ccc2[nH]1
22 | 1.1 nM | – | – | – | Cn1cc(-c2ccc3[nH]c(=O)c(-c4cc5cc(CN6CCCCC6)ccc5[nH]4)cc3c2)cn1
23 | 2.1 nM | 1.38 L/h/kg | 2 h | – | COCC(=O)N1CCN(Cc2ccc3[nH]c(-c4cc5cc(-c6cn[nH]c6)ccc5[nH]c4=O)cc3c2)CC1
